Patent US9833497B2, “Human originated EGF domain proteins and use of the same” (CHENGDU SOURCEBIO LIMITED-LIABILITY COMPANY, priority 2013, dated 2017)

How the values were obtained:
Assay type in all cases: cell-based
Citrobacter diversus = test: MIC against Gram-negative bacteria: Citrobacter diversus
Summary of the method: (§1)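 Two-fold serial dilutions of each purified human EGF domain protein, three replicate wells per level, were combined with bacteria at a final 5×10^5 CFU/mL in LB. Cultures were shaken at 175 rpm, 37° C. The MIC was taken as the minimum concentration preventing growth.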

E. coli BL21 = test: MIC against Gram-negative bacteria: E. coli BL21
Summary of the method: as §1

Aeromonas hydrophila = test: MIC against Gram-negative bacteria: Aeromonas hydrophila
Summary of the method: as §1

Serratia marcescens = test: MIC against Gram-negative bacteria: Serratia marcescens
Summary of the method: as §1

Enterobacter cloacae = test: MIC against Gram-negative bacteria: Enterobacter cloacae
Summary of the method: as §1

Klebsiella pneumonia = test: MIC against Gram-negative bacteria: Klebsiella pneumonia
Summary of the method: as §1

Proteus vulgaris = test: MIC against Gram-negative bacteria: Proteus vulgaris
Summary of the method: as §1

Moraxella catarrhalis = test: MIC against Gram-negative bacteria: Moraxella catarrhalis
Summary of the method: as §1

Pseudomonas aeruginosa = test: MIC against Gram-negative bacteria: Pseudomonas aeruginosa
Summary of the method: as §1

E. coli DH5α = test: Antibacterial activity: MIC and growth curve against E. coli DH5α in 96-well plate; conditions: minimal inhibitory concentration against E. coli DH5α; 96-well plate, 5×10^5 CFU/mL, 37° C., judged after 8 h
Summary of the method: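 Log-phase bacteria (OD600 ~0.5) resuspended in LB at 5×10^5 CFU/mL, exposed to recombinant protein at 50, 25, 12.5 μg/mL final in triplicate, 37 °C shaking at 175 rpm. OD600 read every 30 min; MIC is lowest concentration showing no growth.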

Proteus mirabilis = test: MIC against Gram-negative bacteria: Proteus mirabilis
Summary of the method: as §1

[1] = 96-well plate, 5×10^5 CFU/mL, 37° C., 10 h
[2] = 10 h cultivation at 37° C., 5×10^5 CFU/mL, two-fold serial dilution
[3] = C. diversus, 10 h cultivation at 37° C.
[4] = E. coli BL21, 10 h cultivation at 37° C.
[5] = A. hydrophila, 10 h cultivation at 37° C.
[6] = S. marcescens, 10 h cultivation at 37° C.
[7] = E. cloacae, 10 h cultivation at 37° C.
[8] = K. pneumonia, 10 h cultivation at 37° C.
[9] = P. vulgaris, 10 h cultivation at 37° C.
[10] = M. catarrhalis, 10 h cultivation at 37° C.
[11] = P. aeruginosa, 10 h cultivation at 37° C.
[12] = P. mirabilis, 10 h cultivation at 37° C.

Substance | MIC C. diversus (Citrobacter diversus; [1]) | MIC E. coli BL21 (E. coli BL21; [1]) | MIC A. hydrophila (Aeromonas hydrophila; [1]) | MIC S. marcescens (Serratia marcescens; [1]) | MIC E. cloacae (Enterobacter cloacae; [1]) | MIC K. pneumonia (Klebsiella pneumonia; [1]) | MIC P. vulgaris (Proteus vulgaris; [1]) | MIC M. catarrhalis (Moraxella catarrhalis; [1]) | MIC P. aeruginosa (Pseudomonas aeruginosa; [1]) | MIC (E. coli DH5α) | MIC P. mirabilis (Proteus mirabilis; [1]) | other results
PRT643 (RVVICHLPCMNGGQCSSRDKCQCPPNFTGKLCQ; listed as Homo sapiens) | 50 µg/mL | 25 µg/mL | 25 µg/mL | 50 µg/mL | 12.5 µg/mL | 25 µg/mL | 25 µg/mL | 25 µg/mL | 50 µg/mL | 12.5 µg/mL | 12.5 µg/mL | –
PRT720 (INECHDPSISGCDHNCTDTLTSFYCSCRPGYKLMSDKRTCV; listed as Homo sapiens) | 25 µg/mL | 25 µg/mL | 12.5 µg/mL | 50 µg/mL | 50 µg/mL | 12.5 µg/mL | 12.5 µg/mL | 50 µg/mL | 12.5 µg/mL | 50 µg/mL | 25 µg/mL | –
PRT875 (GGSPCEAGEEGEGGVCLNGGVCSVVDDQAVCDCSRTGFRGKDCS; listed as Homo sapiens) | – | – | – | – | – | – | – | – | – | 25 µg/mL | – | MIC (μg/mL) C. diversus (Citrobacter diversus; C. diversus, 10 h cultivation at 37° C., 5×10^5 CFU/mL): 12.5 µg/mL; MIC (μg/mL) E. coli BL21 (E. coli BL21; E. coli BL21, 10 h cultivation at 37° C., 5×10^5 CFU/mL): 12.5 µg/mL; MIC (μg/mL) A. hydrophila (Aeromonas hydrophila; A. hydrophila, 10 h cultivation at 37° C., 5×10^5 CFU/mL): 50 µg/mL; MIC (μg/mL) S. marcescens (Serratia marcescens; S. marcescens, 10 h cultivation at 37° C., 5×10^5 CFU/mL): 12.5 µg/mL; MIC (μg/mL) E. cloacae (Enterobacter cloacae; E. cloacae, 10 h cultivation at 37° C., 5×10^5 CFU/mL): 12.5 µg/mL; MIC (μg/mL) K. pneumonia (Klebsiella pneumonia; K. pneumonia, 10 h cultivation at 37° C., 5×10^5 CFU/mL): 50 µg/mL; MIC (μg/mL) P. vulgaris (Proteus vulgaris; P. vulgaris, 10 h cultivation at 37° C., 5×10^5 CFU/mL): 12.5 µg/mL; MIC (μg/mL) M. catarrhalis (Moraxella catarrhalis; M. catarrhalis, 10 h cultivation at 37° C., 5×10^5 CFU/mL): 25 µg/mL; MIC (μg/mL) P. aeruginosa (Pseudomonas aeruginosa; P. aeruginosa, 10 h cultivation at 37° C., 5×10^5 CFU/mL): 25 µg/mL; MIC (μg/mL) P. mirabilis (Proteus mirabilis; P. mirabilis, 10 h cultivation at 37° C., 5×10^5 CFU/mL): 50 µg/mL
PRT1150 (HVPWCAHHLCRNNGTCISDNENLFCECPRLYSGK; listed as Homo sapiens) | – | – | – | – | – | – | – | – | – | 12.5 µg/mL | – | MIC C. diversus (Citrobacter diversus; [2]): 25 µg/mL; MIC E. coli BL21 (E. coli BL21; [2]): 50 µg/mL; MIC A. hydrophila (Aeromonas hydrophila; [2]): 50 µg/mL; MIC S. marcescens (Serratia marcescens; [2]): 25 µg/mL; MIC E. cloacae (Enterobacter cloacae; [2]): 12.5 µg/mL; MIC K. pneumonia (Klebsiella pneumonia; [2]): 50 µg/mL; MIC P. vulgaris (Proteus vulgaris; [2]): 50 µg/mL; MIC M. catarrhalis (Moraxella catarrhalis; [2]): 12.5 µg/mL; MIC P. aeruginosa (Pseudomonas aeruginosa; [2]): 12.5 µg/mL; MIC P. mirabilis (Proteus mirabilis; [2]): 25 µg/mL
PRT715 (DIDECSSGFPCSQQCINTYGTYKCLCTDGYEIQPDNPNGCK; listed as Homo sapiens) | 50 µg/mL | 50 µg/mL | 12.5 µg/mL | 12.5 µg/mL | 50 µg/mL | 12.5 µg/mL | 50 µg/mL | 12.5 µg/mL | 25 µg/mL | 50 µg/mL | 25 µg/mL | –
PRT971 (DINDCDPNPCLNGGSCQDGVGSFSCSCLPGFAGPRCA; listed as Homo sapiens) | – | – | – | – | – | – | – | – | – | 50 µg/mL | – | MIC (Citrobacter diversus; [3]): 12.5 µg/mL; MIC (E. coli BL21; [4]): 12.5 µg/mL; MIC (Aeromonas hydrophila; [5]): 50 µg/mL; MIC (Serratia marcescens; [6]): 25 µg/mL; MIC (Enterobacter cloacae; [7]): 25 µg/mL; MIC (Klebsiella pneumonia; [8]): 100 µg/mL; MIC (Proteus vulgaris; [9]): 12.5 µg/mL; MIC (Moraxella catarrhalis; [10]): 25 µg/mL; MIC (Pseudomonas aeruginosa; [11]): 50 µg/mL; MIC (Proteus mirabilis; [12]): 50 µg/mL
PRT603 (CHCHPQGSKDTVCDQVTGQCPCHGEVSGRRCDRCLAGYFGFPSCHP; listed as Homo sapiens) | 12.5 µg/mL | 50 µg/mL | 50 µg/mL | 12.5 µg/mL | 25 µg/mL | 12.5 µg/mL | 50 µg/mL | 50 µg/mL | 25 µg/mL | 25 µg/mL | 12.5 µg/mL | –
PRT1015 (DVNECFQDPGPCPKGTSCHNTLGSFQCLCPVGQEGPRCE; listed as Homo sapiens) | – | – | – | – | – | – | – | – | – | 12.5 µg/mL | – | MIC (Citrobacter diversus; [3]): 50 µg/mL; MIC (E. coli BL21; [4]): 50 µg/mL; MIC (Aeromonas hydrophila; [5]): 25 µg/mL; MIC (Serratia marcescens; [6]): 50 µg/mL; MIC (Enterobacter cloacae; [7]): 12.5 µg/mL; MIC (Klebsiella pneumonia; [8]): 50 µg/mL; MIC (Proteus vulgaris; [9]): 12.5 µg/mL; MIC (Moraxella catarrhalis; [10]): 12.5 µg/mL; MIC (Pseudomonas aeruginosa; [11]): 12.5 µg/mL; MIC (Proteus mirabilis; [12]): 50 µg/mL
